Experimental data as given in PubChem BioAssay AID2060892 (Molecular Pharmacology Branch, DTP, NCI, 2025).

System: HOP-62 complex spheroids with HUVEC/MSC, viability
Test: Anticancer human tumor HOP-62 cell line growth inhibition [RAS];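 also: spheroids exposed to agents for seven days before readout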;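 as to viability, T/C: 100% = DMSO vehicle control viability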
Settings: for IC50: curve of first compound; for viability, T/C: stronger effect = lower value; active = viability on the fitted dose curve at most 10% of control; inactive = the rest
Procedure, shortened: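 Tumour cells grown as complex spheroids with HUVEC endothelial cells and mesenchymal stem cells, treated with RAS pathway inhibitor combinations. Each agent spans half-log steps from near clinical Cmax, or 10 microM where Cmax is unknown.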

[1] = second compound 0.00316 µM, first compound 0.0316 µM
[2] = second compound 0.00316 µM, first compound 0.1 µM
[3] = second compound 0.00316 µM, first compound 0.316 µM
[4] = second compound 0.00316 µM, first compound 1 µM
[5] = second compound 0.01 µM, first compound 0.0316 µM
[6] = second compound 0.01 µM, first compound 0.1 µM
[7] = second compound 0.01 µM, first compound 0.316 µM
[8] = second compound 0.01 µM, first compound 1 µM
[9] = second compound 0.0316 µM, first compound 0.0316 µM
[10] = second compound 0.0316 µM, first compound 0.1 µM
[11] = second compound 0.0316 µM, first compound 0.316 µM
[12] = second compound 0.0316 µM, first compound 1 µM
[13] = second compound 0.1 µM, first compound 0.0316 µM
[14] = second compound 0.1 µM, first compound 0.1 µM
[15] = second compound 0.1 µM, first compound 0.316 µM
[16] = second compound 0.1 µM, first compound 1 µM
[17] = second compound 0.316 µM, first compound 0.0316 µM
[18] = second compound 0.316 µM, first compound 0.1 µM
[19] = second compound 0.316 µM, first compound 0.316 µM
[20] = second compound 0.316 µM, first compound 1 µM
[21] = second compound 1 µM, first compound 0.0316 µM
[22] = second compound 1 µM, first compound 0.1 µM
[23] = second compound 1 µM, first compound 0.316 µM
[24] = second compound 1 µM, first compound 1 µM

C=CC(=O)Nc1cc(Nc2nccc(-c3cn(C)c4ccccc34)n2)c(OC)cc1N(C)CCN(C)C + C=CC(=O)N1CCN(c2nc(OCC3CCCN3C)nc3c(F)c(-c4nc(N)cc(C)c4C(F)(F)F)c(Cl)cc23)C(C)C1
372 nM: IC50 (second compound 0.01 µM)
131 nM: IC50 (second compound 0.0316 µM)
308 nM: IC50 (second compound 0.316 µM)
333 nM: IC50 (second compound 1 µM)
628 nM: IC50 (second compound 0.00316 µM)
280 nM: IC50 (second compound 0.1 µM)
inactive: viability, T/C (second compound 0.00316 µM, first compound 0.00316 µM) 82.4% | viability, T/C (second compound 0.00316 µM, first compound 0.01 µM) 74.9% | viability, T/C [1] 72.5% | viability, T/C [2] 74.1% | viability, T/C [3] 64.1% | viability, T/C [4] 40.5% | viability, T/C (second compound 0.01 µM, first compound 0.00316 µM) 74% | viability, T/C (second compound 0.01 µM, first compound 0.01 µM) 66.6% | viability, T/C [5] 65.7% | viability, T/C [6] 66.4% | viability, T/C [7] 52.9% | viability, T/C [8] 29.4% | viability, T/C (second compound 0.0316 µM, first compound 0.00316 µM) 74.9% | viability, T/C (second compound 0.0316 µM, first compound 0.01 µM) 69.9% | viability, T/C [9] 52.6% | viability, T/C [10] 51.5% | viability, T/C [11] 51.3% | viability, T/C [12] 35.2% | viability, T/C (second compound 0.1 µM, first compound 0.00316 µM) 65.7% | viability, T/C (second compound 0.1 µM, first compound 0.01 µM) 66.1% | viability, T/C [13] 62.7% | viability, T/C [14] 56.4% | viability, T/C [15] 50.9% | viability, T/C [16] 29.4% | viability, T/C (second compound 0.316 µM, first compound 0.00316 µM) 59.2% | viability, T/C (second compound 0.316 µM, first compound 0.01 µM) 58.1% | viability, T/C [17] 59.2% | viability, T/C [18] 57.9% | viability, T/C [19] 48.5% | viability, T/C [20] 33.8% | viability, T/C (second compound 1 µM, first compound 0.00316 µM) 63.9% | viability, T/C (second compound 1 µM, first compound 0.01 µM) 53.5% | viability, T/C [21] 68.9% | viability, T/C [22] 56.9% | viability, T/C [23] 49.8% | viability, T/C [24] 34.1%

CC(C)NCC(C(=O)N1CCN(c2ncnc3c2C(C)CC3O)CC1)c1ccc(Cl)cc1 (centres undefined) + C=CC(=O)N1CCN(c2nc(OCC3CCCN3C)nc3c(F)c(-c4nc(N)cc(C)c4C(F)(F)F)c(Cl)cc23)C(C)C1
554 nM: IC50 (second compound 0.316 µM)
464 nM: IC50 (second compound 0.0316 µM)
450 nM: IC50 (second compound 0.1 µM)
1050 nM: IC50 (second compound 0.00316 µM)
710 nM: IC50 (second compound 0.01 µM)
inactive: viability, T/C [1] 84.3% | viability, T/C [2] 78.1% | viability, T/C [3] 63.4% | viability, T/C [4] 53.4% | viability, T/C (second compound 0.00316 µM, first compound 3.16 µM) 31% | viability, T/C (second compound 0.00316 µM, first compound 10 µM) 12.8% | viability, T/C [5] 71.7% | viability, T/C [6] 67.5% | viability, T/C [7] 60.2% | viability, T/C [8] 46.3% | viability, T/C (second compound 0.01 µM, first compound 3.16 µM) 27.1% | viability, T/C (second compound 0.01 µM, first compound 10 µM) 15.3% | viability, T/C [9] 74.9% | viability, T/C [10] 60.5% | viability, T/C [11] 53.7% | viability, T/C [12] 39.2% | viability, T/C (second compound 0.0316 µM, first compound 3.16 µM) 39% | viability, T/C (second compound 0.0316 µM, first compound 10 µM) 12% | viability, T/C [13] 70% | viability, T/C [14] 57.8% | viability, T/C [15] 60.7% | viability, T/C [16] 34.6% | viability, T/C (second compound 0.1 µM, first compound 3.16 µM) 25.4% | viability, T/C (second compound 0.1 µM, first compound 10 µM) 13.6% | viability, T/C [17] 61.7% | viability, T/C [18] 81.3% | viability, T/C [19] 55.5% | viability, T/C [20] 39.4% | viability, T/C (second compound 0.316 µM, first compound 3.16 µM) 23.5% | viability, T/C (second compound 0.316 µM, first compound 10 µM) 12.6% | viability, T/C [21] 69.8% | viability, T/C [22] 57.1% | viability, T/C [23] 50.2% | viability, T/C [24] 39.4% | viability, T/C (second compound 1 µM, first compound 3.16 µM) 23.9% | viability, T/C (second compound 1 µM, first compound 10 µM) 11.4%
300 nM: IC50 (second compound 1 µM)
